Laboratory results from patent publication EP0341318A1, “NOVEL PLATINUM (II) COMPLEX, PROCESS FOR PREPARING THE SAME, AND THERAPEUTIC AGENT FOR MALIGNANT TUMOR” (TORAY INDUSTRIES, INC., priority 1987, dated 1989).
Values joined by “and” are separate entries in the source; they are usually repeats but may differ in a detail not shown here. Equal entries are not always repeated.

Columns and labels:
L1210 murine leukemia = experiment: Antitumor activity against L1210 murine leukemia in mice; format: in vivo, CDF1 mice; conditions: for Survival days (mean±SD): administered on 1st, 5th and 9th days after tumor inoculation, CDF1 mice, 10^5 L1210 cells i.p.; for T/C (%) / Survival rate: days 1, 5, 9; for T/C (%): L1210 in CDF1 mice; for Survival rate: Number of 30 days survival mice / group
Experimental: L1210 murine leukemia cells which were subcultured in DBA/2 mouse were inoculated intraperitoneally into CDF1 mice at 10^5 cells/mouse. Each experimental group was composed of 6-10 mice (male, 6-weeks old). Each test compound was administered three times, i.e., on the lst, 5th and 9th days after tumor inoculation. CBDCA and CDDP were used as control drugs in this experiment. Each compound was dissolved or suspended in 0.05% Tween 80 solution and administered in mice. Antitumor activity against L1210 leukemia was determined by T/C value calculated by the following equation and by the number of 30 days survival mice. [formula]
The antitumor activities of the compounds Nos. 3 to 5 of this invention were determined in the same way as in Example 6.

Slc:ICR mice = experiment: Acute toxicity test on mice; format: in vivo; conditions: intraperitoneal injection, Slc:ICR mice (male, 5 weeks old), mortality on the 14th day
Experimental: Each test compound was intraperitoneally injected into Slc:ICR mice (male, 5 weeks old). Each compound was formulated into a solution or suspension in a 0.05% Tween 80 solution. The LD50 value was calculated from mortality found on the 14th day after said injection.

Row | Compound | Survival days (mean±SD) (L1210 murine leukemia; Dose 1 mg/kg) [days] | T/C (%) (L1210 murine leukemia; Dose 1 mg/kg) | Survival days (mean±SD) (L1210 murine leukemia; Dose 10 mg/kg) [days] | T/C (%) (L1210 murine leukemia; Dose 10 mg/kg) | Survival days (mean±SD) (L1210 murine leukemia; Dose 25 mg/kg) [days] | T/C (%) (L1210 murine leukemia; Dose 25 mg/kg) | Survival days (mean±SD) (L1210 murine leukemia; Dose 50 mg/kg) [days] | T/C (%) (L1210 murine leukemia; Dose 50 mg/kg) | Survival days (mean±SD) (L1210 murine leukemia; Dose 100 mg/kg) [days] | T/C (%) (L1210 murine leukemia; Dose 100 mg/kg) | Survival days (mean±SD) (L1210 murine leukemia; Dose 200 mg/kg) [days] | T/C (%) (L1210 murine leukemia; Dose 200 mg/kg) | Survival rate (L1210 murine leukemia; dose 1 mg/kg) | Survival rate (L1210 murine leukemia; dose 10 mg/kg) | Survival rate (L1210 murine leukemia; dose 25 mg/kg) | Survival rate (L1210 murine leukemia; dose 50 mg/kg) | Survival rate (L1210 murine leukemia; dose 100 mg/kg) | Survival rate (L1210 murine leukemia; dose 200 mg/kg) | LD50 (Slc:ICR mice) [mg/kg] | other results
1 | cis-diammine-1,1-cyclobutanedicarboxylate platinum(II) [CBDCA, reference compound] | 8.3 ± 0.5 | 98 | 9.3 ± 0.5 | 109 | 10.1 ± 1.3 | 119 | 13.1 ± 2.3 | 156 | 14.1 ± 3.7 | 166 | 9.6 ± 0.7 | 113 | 0/10 | 0/10 | 0/10 | 0/10 | 0/10 | 0/10 | – | –
2 | 2-(2-(2-Methoxyethoxy)ethoxy)ethyl 2,2-dimethyl-6,6,7,7,8,8,8-heptafluoro-3,5-dioxooctanoate- hydroxo(trans-l-1,2-diamino-cyclohexane)platinum(II) [Compound No. 4] | 10.7 ± 2.7 | 127 | 20.8 ± 7.8 | 248 | 23.7 ± 5.9 | 282 | 11.5 ± 9.5 | 137 | 2.0 ± 0.0 | 24 | 2.0 ± 0.0 | 24 | 0/6 | 2/6 | 2/6 | 1/6 | 0/6 | 0/6 | – | –
3 | N.N.[Cl][Pt][Cl] [CDDP, cis-diamminedichloroplatinum(II), reference compound] | – | – | – | – | – | – | – | – | – | – | – | – | – | – | – | – | – | – | – | Survival days (mean±SD) (L1210 murine leukemia; Dose 2.5 mg/kg, 2.5 mg/kg): 14.7 ± 2.7 days and 12.0 ± 3.0 days and 13.2 ± 2.9 days; T/C (%) (L1210 murine leukemia; Dose 2.5 mg/kg): 181% and 143% and 163%; Survival days (mean±SD) (L1210 murine leukemia; Dose 5.0 mg/kg, 5 mg/kg): 18.8 ± 4.3 days and 14.3 ± 2.9 days and 13.7 ± 1.5 days and 16.0 ± 2.8 days; T/C (%) (L1210 murine leukemia; Dose 5.0 mg/kg): 232% and 170% and 163% and 198%; Survival days (mean±SD) (L1210 murine leukemia; Dose 7.5 mg/kg, 7.5 mg/kg): 18.7 ± 3.1 days and 15.5 ± 2.1 days and 14.2 ± 2.4 days; T/C (%) (L1210 murine leukemia; Dose 7.5 mg/kg): 231% and 185% and 175%; Survival rate (L1210 murine leukemia; dose 2.5 mg/kg): 0/6; Survival rate (L1210 murine leukemia; dose 5.0 mg/kg): 0/6; Survival rate (L1210 murine leukemia; dose 7.5 mg/kg): 0/6
4 | N[C@@H]1CCCC[C@H]1N.O=C(O)CC(=O)C=C([O-])C(F)(F)C(F)(F)C(F)(F)F.[OH-].[Pt+2] [Compound No. 3, 6,6,7,7,8,8,8-Heptafluoro-3,5-dioxooctanoic acid hydroxo-(trans-l-1,2-diaminocyclohexane)platinum(II)] | 9.7 ± 1.4 | 115 | 9.7 ± 1.4 | 115 | 11.0 ± 0.9 | 131 | 11.8 ± 0.8 | 140 | 14.0 ± 2.7 | 167 | 11.2 ± 3.7 | 133 | 0/6 | 0/6 | 0/6 | 0/6 | 0/6 | 0/6 | >200 | –
5 | 3-Heptafluorobutyryl-D-camphor-hydroxo(trans-l-1,2-diaminocyclohexane)platinum(II) [Compound No. 5] | 9.0 ± 0.6 | 111 | 14.7 ± 2.3 | 181 | 19.8 ± 6.1 | 244 | 15.3 ± 7.1 | 189 | 4.2 ± 1.0 | 52 | 2.0 ± 0.0 | 25 | 0/6 | 0/6 | 1/6 | 0/6 | 0/6 | 0/6 | 47 | –
6 | CC(C)(C)C(=O)C=C([O-])C(F)(F)C(F)(F)C(F)(F)F.N[C@@H]1CCCC[C@H]1N.[OH-].[Pt+2] [Compound No. 1, 2,2-Dimethyl-6,6,7,7,8,8,8-heptafluoro-3,5-octanedione-hydroxo(trans-I-1,2-diaminocyclohexane)platinum(II)] | 10.5 ± 1.2 | 130 | 29.5 ± 1.2 | 364 | 29.7 ± 0.5 | 367 | 24.0 ± 10.3 | 296 | 5.2 ± 1.9 | 64 | 1.7 ± 0.5 | 21 | 0/6 | 4/6 | 4/6 | 4/6 | 0/6 | 0/6 | 35 | T/C (%) (L1210 murine leukemia; Dose 10 mg/kg, listed as compound No. 1, 10 mg/kg): greater than 360%; T/C (%) (L1210 murine leukemia; Dose 25 mg/kg, listed as compound No. 1, 25 mg/kg): greater than 360%; antitumor activity (L1210 murine leukemia; comparison in words with control drugs, L1210 in mice): higher than CDDP and CBDCA
